Test results: patent publication US20120010075A1 (priority 2009, published 2012)
Like-named read-outs stand apart in the source and are kept apart here.

Key:
[1] = system: Leptosphaeria nodorum (LEPTNO); assay: In vitro fungitoxicity of hydrazones with and without copper towards Leptosphaeria nodorum (Example 26); format: cell-based; details: 72 h at 25° C.; for inhibition of growth at 0.05 µg/mL: Parastagonospora nodorum, 72 h, copper-minus medium, read-out: LEPTNO % Inhn. Minus Copper Observed
Phytophthora infestans = format: in vivo, Phytophthora infestans on tomato; details: applied 24 h before inoculation, assessed 7 days after inoculation
[2] = test compound Concn. 0.05 μg/mL
[3] = copper-plus medium (CuCl2 10 μM), test compound Concn. 0.05 μg/mL
[4] = hydrazone 50 ppm with 50 μM CuCl2.2H2O, tomato late blight
[5] = compound 0.05 μg/mL, copper-plus medium (CuCl2.2H2O)
[6] = hydrazone 50 ppm + 50 μM CuCl2.2H2O, tomato

SMILES	inhibition of growth at 0.05 µg/mL [1, 2] [%]	LEPTNO % Inhn. Plus Copper Observed [1, 3] [%]	TLB % Control (Phytophthora infestans; [4]) [%]	melting point	inhibition of growth at 0.05 µg/mL ([1]; compound 0.05 μg/mL) [%]	LEPTNO % Inhn. Plus Copper Observed [1, 5] [%]	TLB % Control (Phytophthora infestans; [6]) [%]
O=C(N/N=C/c1c(Cl)ccc(Cl)c1O)c1ccc([N+](=O)[O-])cc1 [Example 375]	7.2	98.2	90.0	250 to 300 °C (dec.)			
COc1ccc(C(=O)N/N=C(\C)c2ccc(Cl)cc2O)cc1 [Example 459]	7.3	96.9	20.0	262 to 263 °C			
COc1ccc(/C(C)=N/NC(=O)c2ccccc2Cl)c(O)c1OC [Example 555]	3.7	92.5	46.0	77 to 86 °C			
C/C(=N\NC(=O)c1ccccc1Cl)c1cc(Br)ccc1O [Example 291]				198 to 201 °C	2.2	95.4	67.0
C/C(=N\NC(=O)c1ccccc1Cl)c1cc(C)ccc1O [Example 315]	2.7	95.8	18.0	154 to 158 °C			
C/C(=N\NC(=O)c1ccc(C)cc1)c1cccc([N+](=O)[O-])c1O [Example 271]				242 to 249 °C	6.9	98.9	61.0
COc1ccc(C(=O)N/N=C(\C)c2cccc(OC)c2O)cc1 [Example 464]	6.7	94.8	93.0	140 to 141 °C			
CC(C)(C)N(/N=C/c1ccccc1O)C(=O)c1ccccc1 [Example 217]				91 to 104 °C	0	92.7	0.0
O=C(N/N=C/c1ccc(Cl)c(Cl)c1O)c1ccccc1C(F)(F)F [Example 363]	4.3	94.7	92.0	209 to 213 °C			
O=C(N/N=C/c1ccc(Cl)cc1O)c1ccccc1O [Example 395]	8.2	93.9	76.0	210 to 213 °C			
COc1cccc(/C(C)=N/NC(=O)c2ccc(Br)cc2)c1O [Example 465]	1.7	96.5	93.0	176 to 177 °C			
COc1ccc(O)c(/C(C)=N/NC(=O)c2ccccc2C)c1 [Example 262]				146 to 155 °C	3.1	94.0	4.6
C/C(=N\NC(=O)c1ccc(Cl)cc1)c1cc(C(F)(F)F)ccc1O [Example 533]	6.2	97.0	34.0	263 to 265 °C			
O=C(N/N=C/c1c(Cl)ccc(Cl)c1O)c1ccccc1O [Example 372]	15.1	97.4	98.0	260 to 262 °C			
O=C(N/N=C/c1c(Cl)ccc(Cl)c1O)c1ccc(F)cc1 [Example 368]	0	96.9	98.0	264 to 267 °C			
C/C(=N\NC(=O)c1ccc(Br)cc1)c1cc(Cl)ccc1O [Example 512]	7.4	97.8	59.0	269 to 271 °C			
COc1ccc(/C(C)=N/NC(=O)c2ccccc2)c(O)c1OC [Example 551]	1.7	96.0	90.0	154 to 155 °C			
O=C(N/N=C/c1c(C(F)(F)F)ccc(Cl)c1O)c1ccccc1 [Example 319]	18.1	96.6	78.0	216 to 218 °C			
C/C(=N\NC(=O)c1ccc(C(F)(F)F)cc1)c1cc(Cl)cc(Cl)c1O [Example 470]	4	98.0	93.0	237 to 238 °C			
C/C(=N\NC(=O)c1ccc(C)cc1)c1cc(C)ccc1O [Example 314]	0	97.7	8.8	206 to 208 °C			
C/C(=N\NC(=O)c1ccccc1O)c1cc(F)cc(F)c1O [Example 583]	13.2	98.0	100.0	308 to 323 °C			

SMILES	inhibition of growth at 0.05 µg/mL [1, 2] [%]	LEPTNO % Inhn. Plus Copper Observed [1, 3] [%]	TLB % Control (Phytophthora infestans; [4]) [%]	melting point	inhibition of growth at 0.05 µg/mL ([1]; compound 0.05 μg/mL) [%]	LEPTNO % Inhn. Plus Copper Observed [1, 5] [%]	TLB % Control (Phytophthora infestans; [6]) [%]
COc1cc(Br)cc(/C=N/NC(=O)c2cc(C)cc(C)c2)c1O [Example 209]				189 to 193 °C	17.6	95.9	67.3
O=C(N/N=C/c1c(C(F)(F)F)ccc(Cl)c1O)c1cccc([N+](=O)[O-])c1 [Example 453]	5.6	100.0	100.0	277 to 279 °C			
C/C(=N\NC(=O)c1ccc(Br)cc1)c1ccccc1O [Example 458]	3.7	96.6	46.0	218 to 221 °C			
COc1cc(O)c(/C(C)=N/NC(=O)c2ccc(C)cc2)c(OC)c1 [Example 566]	6.8	95.9	70.0	177 to 184 °C			
Cc1cc(C)cc(C(=O)N/N=C/c2cc(Br)ccc2O)c1 [Example 107]				191 to 195 °C	0	97.2	74.6
O=C(N/N=C/c1cc(Cl)ccc1O)c1ccc(F)cc1 [Example 421]	8.2	96.6	94.0	234 to 243 °C			
COc1cc(O)c(/C(C)=N/NC(=O)c2ccc(C(F)(F)F)cc2)c(OC)c1 [Example 571]	0	84.7	31.0	131 to 133 °C			
O=C(N/N=C/c1cc(Cl)cc(Br)c1O)c1ccc(F)cc1 [Example 415]	2.9	96.1	100.0	200 to 211 °C			
C/C(=N\NC(=O)c1ccccc1Br)c1cc(F)cc(F)c1O [Example 582]	12.2	97.8	94.0	190 to 195 °C			
C/C(=N\NC(=O)c1ccc(Br)cc1)c1cc(Br)ccc1O [Example 517]	0	96.7	56.0	270 to 275 °C			
COc1ccc(O)c(/C(C)=N/NC(=O)c2ccccc2Cl)c1 [Example 265]				170 to 184 °C	0	98.1	15.0
O=C(N/N=C/c1cc(Cl)cc(Cl)c1O)c1cccc(Oc2ccccc2)c1 [Example 46]				170 to 171 °C	20.5	95.9	72.7
O=C(N/N=C/c1c(O)cccc1Cl)c1ccc(F)cc1 [Example 401]	0	94.8	98.0	266 to 268 °C			
C/C(=N\NC(=O)c1ccccc1Br)c1ccc(Cl)cc1O [Example 462]	0	95.0	86.0	187 to 188 °C			
COc1ccc(/C(C)=N/NC(=O)c2ccccc2Cl)c(O)c1 [Example 284]				174 to 175 °C	0	97.1	74.0
CC/C(=N\NC(=O)c1cccc(Oc2ccccc2)c1)c1ccccc1O [Example 44]				148 to 163 °C	0.3	93.0	0.7
O=C(N/N=C/c1cc(Br)ccc1O)c1cc(Cl)ccc1Cl [Example 186]				196 to 202 °C	0	97.6	61.8
COc1ccc(C(=O)N/N=C(\C)c2cc(Br)cc(Br)c2O)cc1 [Example 546]	7.6	97.7	100.0	247 to 248 °C			
O=C(N/N=C/c1cc(C(F)(F)F)cc(C(F)(F)F)c1O)c1cccc([N+](=O)[O-])c1 [Example 338]	9	98.1	96.0	256 to 258 °C			
O=C(N/N=C/c1cc(C(F)(F)F)cc(Cl)c1O)c1ccc(Cl)cc1 [Example 326]	6.9	95.6	93.0	208 to 210 °C			
